This assay deals with HeLa viability, CellTiter-Glo ATP luminescence. Briefly: viability loss of HeLa cells – cell-based, CellTiter-Glo luminescence, cytotoxicity control for Wee1 degradation inhibitor project, dose response (AID 1413). (In general: ATP-based viability assays read luminescence as a measure of living cells.)

Activity calls are given as the source filed them.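 Rule for the calls: active = CC50, the dose killing half the cells, at or below 10 µM, by curve fit or manual estimate; inactive = CC50 above 10 µM.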

Take `O=C(/C=C/c1ccccc1)Nc1ccc(Cl)cn1`: the CC50 (commonly the concentration that lowers cell viability or growth by half) is > 49.8 µM (inactive).
Next, `CCCCS(=O)(=O)/C=C\C=C/S(=O)(=O)CCCC`: > 16.6 µM (inactive); `C=CS(=O)(=O)c1ccc(Oc2ccc(S(=O)(=O)C=C)cc2)cc1`: > 49.8 µM (inactive).
Next, `O=C(Nc1ccc(Cl)c(Cl)c1)Nc1nccs1`: > 49.8 µM (inactive).
With `Cc1cc(Cl)ccc1NC(=S)Nc1ccccn1`, the CC50 was > 49.8 µM (inactive).
As to `CCN(CC)c1ccc(/C=N/NC(=O)c2cnccn2)cc1`, the CC50 was > 49.8 µM (inactive).
The value for `Cc1cccn2c1nc(=S)n2C(=O)c1ccco1` was > 49.8 µM (inactive).
In the case of `CCN(CC)c1ccc(/C=N/NC(=O)c2ccco2)cc1`, the CC50 was > 49.8 µM (inactive).
The value for `CCOc1cccc(N(C(=O)Cc2cccs2)C(C(=O)NC2CCCCC2)c2cccn2C)c1` (stereo not drawn) was > 49.8 µM (inactive).
Next, `O=S(=O)(C/C(=C/CO)S(=O)(=O)c1ccccc1)c1ccccc1`: > 49.8 µM (inactive); `Cn1cccc1/C=C1\SC(=Nc2ccccc2)NC1=O`: > 49.8 µM (inactive); `COc1ccccc1-c1ccc(SCc2ccccc2F)nn1`: > 49.8 µM (inactive).
On to `COC(=O)C1CCN(C(=O)/C=C/c2ccc(OC)cc2)CC1`, for which the CC50 is > 49.8 µM (inactive).
With `COc1cc(C2=NOC(C(=O)NCc3cccs3)C2)cc(OC)c1OC` (stereo not drawn), the CC50 is > 49.8 µM (inactive).
In the case of `Cc1ccc2nc(NCc3ccccc3)[nH]c2c1`, the CC50 was > 49.8 µM (inactive).
For the compound `CC(=O)Nc1ccc(/C=N/Nc2nc3ccccc3s2)cc1`, the CC50 is > 49.8 µM (inactive).
The value for `Cc1ccc(Nc2cc(C)nn2-c2nc(C)cc(=O)[nH]2)cc1` was > 49.8 µM (inactive).
As for `CCN(CC)S(=O)(=O)c1ccc(C(=O)NCCc2ccccn2)cc1`, the CC50 was > 49.8 µM (inactive).
Turning to `CCOC(=O)N1CCN(C(=O)c2cc(-c3ccc(OCC)cc3)nc3ccccc23)CC1`, the CC50 was > 49.8 µM (inactive).
The value for `O=C(N=Nc1c(O)[nH]c2ccc(Br)cc12)c1ccccc1-n1cccc1` was > 49.8 µM (inactive); that for `COc1ccc(NC(=O)/C(Cl)=C(/Cl)S(=O)Cc2ccc(C)cc2)cn1` (stereo not drawn) was 14.5 µM (inactive).
On to `O=C1C=CC(O)(c2cc(=O)c3c(O)cc(O)cc3o2)C=C1`, for which the CC50 was > 49.8 µM (inactive).
Next, `O=[N+]([O-])c1ccc(Sc2cccc[n+]2[O-])c2nonc12`: 6.76 µM; `COc1ccc(Nc2oc(-c3ccc(OC)cc3)nc2C#N)cc1`: > 49.8 µM (inactive).
Turning to `Cc1nc2ccccn2c1-c1csc(Nc2cccc(O)c2)n1`, the CC50 was > 49.8 µM (inactive).
Next, `O=c1[nH]c2ccccc2nc1/C=C(\O)c1cccs1`: > 49.8 µM (inactive); `Cc1ccc(/C=N/NC(=O)c2ccc3c(c2)OCCO3)s1`: > 49.8 µM (inactive); `COc1cccc(/C=N/NC(=O)c2cc3c(OC)c(OC)ccc3[nH]2)c1OC`: > 49.8 µM (inactive).
Next, `Cc1ccnc(NC(=O)CCCOc2cc(=O)n(C)c3ccccc23)c1`: > 49.8 µM (inactive); `COc1ccc(/C=N/NC(=O)c2ccc3ccccc3c2)cc1OS(=O)(=O)c1ccc(NC(C)=O)cc1`: > 49.8 µM (inactive); `O=C(COc1ccc(C(=O)c2ccc(F)cc2)cc1)NCc1ccc(F)cc1`: > 49.8 µM (inactive).
For the compound `CCCC1=Nc2cc(C(=O)NCc3ccco3)ccc2Sc2ccccc21`, the CC50 was > 49.8 µM (inactive).
As to `O=C(/C=C/c1cccnc1)/C=C/c1cccnc1`, the CC50 was > 49.8 µM (inactive).
Next, `CCOC(=O)C1=C(c2ccccc2)O/C(=C(/C#N)C(F)(F)F)S1`: 7.17 µM; `Cc1csc2sc(-c3ccnc(SCC(=O)NCc4ccccc4)n3)c(C)c12`: > 49.8 µM (inactive).
Next, `On1onc2c3cc(-c4ccccc4)nc3ccc21`: > 49.8 µM (inactive); `COc1cccc(C2=CC(c3cccc(OC)c3OC)n3nnnc3N2)c1` (stereo not drawn): > 49.8 µM (inactive).
Consider `COc1ccc(NC(=O)/C(Cl)=C(/Cl)S(=O)Cc2ccccc2)cn1` (stereo not drawn), for which the CC50 is > 16.6 µM (inactive).

The values above are taken from PubChem BioAssay AID1413 (The Scripps Research Institute Molecular Screening Center, 2008).
